Measured values taken from patent US6506751B1, “Thiazolidinone compounds useful as chemokine inhibitors” (Millennium Pharmaceuticals, Inc., priority 1999, dated 2003).

Key:
CCR-5 receptor = biological target: T1, CCR-5 receptor (Homo sapiens, UniProt P51681); assay: 125I-gp120/sCD4/CCR-5 binding assay (CCR-5 receptor binding assay); conditions: for IC50: block of 125I-gp120 (HIV-1 JR-FL)/sCD4 binding to membranes from CCR-5/L 1.2 cells; for inhibition at 10 µM / % Inhib. @ 10 μM: 10 μM compound, 125I-gp120/sCD4 binding to membranes from CCR-5/L 1.2 cells; for inhibition at 10 µM: read-out: % Inhib. @ 10 μM
T1 construct: membranes prepared from CCR-5/L 1.2 cells; expressed in transfected cells; host or cells: L1.2 cells (CCR-5/L 1.2), membrane preparation
T1 sequence (P51681 whole entry): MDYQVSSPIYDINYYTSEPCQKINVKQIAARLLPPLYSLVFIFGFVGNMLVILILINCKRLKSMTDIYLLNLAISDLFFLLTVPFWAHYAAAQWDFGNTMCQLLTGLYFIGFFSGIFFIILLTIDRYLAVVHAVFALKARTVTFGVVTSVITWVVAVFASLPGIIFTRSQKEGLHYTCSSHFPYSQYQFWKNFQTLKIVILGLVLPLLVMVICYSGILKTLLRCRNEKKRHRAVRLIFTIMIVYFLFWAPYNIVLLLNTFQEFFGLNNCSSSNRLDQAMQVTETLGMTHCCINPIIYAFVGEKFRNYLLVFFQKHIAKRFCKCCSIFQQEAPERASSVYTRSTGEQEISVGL
Experimental: The ^125I-gp120/sCD4/CCR-5 binding assay is carried out similarly as described in Wu et al., Nature, 1996;384:179-183. Briefly, the envelope gp120 protein derived from HIV-1 JR-FL (Trkola et al., Nature, 1996;384:184-186), a M-tropic strain, is iodinated using solid phase lactoperoxidase to a specific activity of 20 μCi/μg. For each binding reaction (in a final volume of 100 μL binding buffer [50 mM HEPES, pH 7.5, 1 mM CaCl2, 5 mM MgCl2, and 0.5% BSA]), 25 μL (2.5 μg) of membranes prepared from CCR-5/L 1.2 cells are mixed with 25 μL (3 nM) sCD4, followed by 25 μL (0.1 nM) radiolabeled gp120 in the presence or absence of 25 μL compound dissolved in DMSO (final concentration of DMSO 0.5%). The reactions are incubated at room temperature for 45 to 60 minutes and stopped by transferring the mixture to GFB filter plates, which are then washed 3 to 4 times with binding buffer containing 0.5 M NaCl. The plates are dried and MicroScint scintillation fluid is added before counting.

IC50 (CCR-5 receptor) [nM] | melting point [°C] | inhibition at 10 µM (CCR-5 receptor) [%] | % Inhib. @ 10 μM (CCR-5 receptor) [%] | Structure (SMILES)
10800 | 149 to 150 |  |  | O=C1/C(=C\c2cccc(F)c2)SC(c2cccc(F)c2)N1CCCN1CCOCC1 (centres unmarked) [Compound 1, 5-(3-Fluorobenzylidene)-2-(3-fluorophenyl)-3-(3-morpholin-4-ylpropyl)-thiazolidin-4-one]
250 | 137 to 139 |  |  | O=C1/C(=C\c2cccc(Cl)c2)SC(c2cccc(Cl)c2)N1CCCN1CCCCC1 (centres unmarked) [Compound 2, 5-(3-Chlorobenzylidene)-2-(3-chlorophenyl)-3-(3-piperidin-1-yl-propyl)-thiazolidin-4-one]
1260 | 160 to 162 |  |  | O=C1/C(=C\c2cccc(F)c2)SC(c2cccc(F)c2)N1CCCN1CCC(N2CCCCC2)CC1 (centres unmarked) [Compound 6, 3-(3-[1,4′]Bipiperidinyl-1′-yl-propyl)-5-(3-fluorobenzylidene)-2-(3-fluorophenyl)-thiazolidin-4-one]
460 | 90 to 91 |  |  | O=C1/C(=C\C2CCCCC2)SC(c2cccc(Cl)c2)N1CCCN1CCCCC1 (centres unmarked) [Compound 14, 2-(3-Chlorophenyl)-5-cyclohexylmethylene-3-(3-piperidin-1-yl-propyl)-thiazolidin-4-one]
12700 | 41 to 43 |  |  | CCN(CC)CCSCCCN1C(=O)/C(=C\c2cccc(F)c2)SC1c1cccc(Cl)c1 (centres unmarked) [Compound 15, 2-(3-Chlorophenyl)-3-[3-(2-diethylaminoethylsulfanyl)propyl]-5-(3-fluorobenzylidene)-thiazolidin-4-one]
3810 | 140 to 141 |  |  | O=C1CSC(c2cccc(Cl)c2)N1C1CCN(Cc2ccccc2)CC1 (centres unmarked) [Compound 16, 3-(1-Benzylpiperidin-4-yl)-2-(3-chlorophenyl)-thiazolidin-4-one]
280 | 121 to 123 |  |  | O=C1/C(=C\c2cccc(F)c2)SC(c2cccc(Cl)c2)N1C1CCN(Cc2ccccc2)CC1 (centres unmarked) [Compound 19, 3-(1-Benzylpiperidin-4-yl)-2-(3-chlorophenyl)-5-(3-fluorobenzylidene)-thiazolidin-4-one]
170 | 156 to 158 |  |  | O=C1/C(=C\c2ccco2)SC(c2cccc(Cl)c2)N1CCCN1CCCCC1 (centres unmarked) [Compound 20, 2-(3-Chlorophenyl)-5-(furan-2-ylmethylene)-3-(3-piperidin-1-yl-propyl)-thiazolidin-4-one]
1990 | 142 to 143 |  |  | O=C1/C(=C\c2cccc(F)c2)SC(c2cccc(Cl)c2)N1CCCN1CCOCC1 (centres unmarked) [Compound 23, 2-(3-Chlorophenyl)-5-(3-fluorobenzylidene)-3-(3-morpholin-4-yl-propyl)-thiazolidin-4-one]
 |  | 57.7 |  | O=C1C(=Cc2cccc(Cl)c2)SC(c2cccc(C(F)(F)F)c2)N1CCCN1CCN(c2ncccn2)CC1 (centres unmarked) [Compound 45, 5-(3-Chloro-benzylidene)-3-[3-(4-pyrimidin-2-yl-piperazin-1-yl)-propyl]-2-(3-trifluoromethyl-phenyl)-thiazolidin-4-one]
 |  |  | 51.1 | O=C1C(=Cc2cccc(Cl)c2)SC(c2cccc(C(F)(F)F)c2)N1CCCN1CCN(C2CCCCC2)CC1 (centres unmarked) [Compound 46, 5-(3-Chloro-benzylidene)-3-[3-(4-cyclohexyl-piperazin-1-yl)-propyl]-2-(3-rifluoromethyl-phenyl)-thiazolidin-4-one]
 |  |  | 75.6 | O=C1C(=Cc2cccc(Cl)c2)SC(c2cccc(F)c2)N1CCCN1CCN(c2ccccn2)CC1 (centres unmarked) [Compound 47, 5-(3-Chloro-benzylidene)-2-(3-fluoro-phenyl)-3-[3-(4-pyridin-2-yl-piperazin-1-yl)-propyl]-thiazolidin-4-ne]
 |  | 84.7 |  | O=C1C(=Cc2cccc(Cl)c2)SC(c2cccc(F)c2)N1CCCN1CCN(c2ncccn2)CC1 (centres unmarked) [Compound 48, 5-(3-Chloro-benzylidene)-2-(3-fluoro-phenyl)-3-[3-(4-pyrimidin-2-yl-piperazin-1-yl)-propyl]-thiazolidin-4-one]
 |  |  | 54.0 | O=C1C(=Cc2cccc(Cl)c2)SC(c2cccc(F)c2)N1CCCN1CCN(C2CCCCC2)CC1 (centres unmarked) [Compound 49, 5-(3-Chloro-henzylidene)-3-[3-(4-cyclohexyl-piperazin-1-yl)-propyl]-2-(3-fluoro-phenyl)-thiazolidin-4-one]
 |  | 77.8 |  | O=C1C(=Cc2cccc(Cl)c2)SC(c2cccc(Cl)c2)N1CCCN1CCN(c2ccccn2)CC1 (centres unmarked) [Compound 50, 5-(3-Chloro-benzylidene)-2-(3-chloro-phenyl)-3-[3-(4-pyridin-2-yl-piperazin-1-yl)-propyl]-thiazolidin-4-one]
 |  | 84 |  | O=C1C(=Cc2cccc(Cl)c2)SC(c2cccc(Cl)c2)N1CCCN1CCN(c2ncccn2)CC1 (centres unmarked) [Compound 51, 5-(3-Chloro-benzylidene)-2-(3-chloro-phenyl)-3-[3-(4-pyrimidin-2-yl-piperazin-1-yl)-propyl]-thiazolidin-4-one]
 |  | 43.7 |  | O=C1C(=Cc2cccc(Cl)c2)SC(c2cccc(Cl)c2)N1CCCN1CCN(C2CCCCC2)CC1 (centres unmarked) [Compound 52, 5-(3-Chloro-benzylidene)-2-(3-chloro-phenyl)-3-[3-(4-cyclohexyl-piperazin-1-yl)-propyl]-thiazolidin-4-one]
